Literature values, collected in US20170333389A1, “Method of Ameliorating Clotting Pathologies and Related Materials and Methods” (The Ohio State University, priority 2012, published 2017).

Legend:
platelet aggregation = conditions: low-dose aspirin (81 mg) treated healthy volunteers
[1] = patients who have had a TIA or stroke

## CC(=O)CC(c1ccccc1)c1c(O)c2ccccc2oc1=O (centres unmarked) [warfarin]
Recurrent stroke; patients with stroke due to atrial fibrillation, dose-adjusted
  decrease of relative stroke risk: 62%

## CC(C)c1c(C(=O)Nc2ccccc2)c(-c2ccccc2)c(-c2ccc(F)cc2)n1CC[C@@H](O)C[C@@H](O)CC(=O)O [atorvastatin]
Recurrent stroke; patients with stroke, high dose, over 5 years
  decrease of risk of recurrent stroke: about 2%

## CC(=O)Oc1ccccc1C(=O)O [aspirin]
Platelet aggregation
  platelet function recovery after withdrawal: 48 to 72 h
Recurrent stroke; [1]
  decrease of relative risk of non-fatal ischemic stroke: 19%
  decrease of relative risk of recurrent stroke, myocardial infarction, and vascular death: 13%
